Data: publication PMC6745270 (Neuropharmacology, 2019)
Counter-ions that a name gives are not always drawn.

Legend:
[1] = ref Higley et al., 2011, Maramai et al., 2016, Nathan et al., 2012, Stossel et al., 2017, Thanos et al., 2008, Thomsen et al., You et al.; cited from earlier work
[2] = ref Xi and Gardner, 2007; cited from earlier work
[3] = system: DAT-Cre mice; assay: Optical intracranial self-stimulation; format: in vivo, mouse; conditions: for effect on oICSS: 5 min prior to testing, vs vehicle
[4] = system: rats; assay: Hot plate thermal nociception test; format: in vivo, rat
[5] = system: wild-type C57BL/6J mice; assay: Sucrose self-administration; format: in vivo, mouse
[6] = Pharmacokinetic study in rats, plasma and brain; format: in vivo; conditions: rat, plasma, po, 10 mg/kg
[7] = system: Long-Evans rats; assay: Oxycodone self-administration under progressive-ratio; conditions: 20 mg/kg i.p., normalized to baseline, vs vehicle
[8] = system: Long-Evans rats; assay: Oxycodone self-administration under FR1 reinforcement; format: in vivo, rat
[9] = Phase I metabolic stability in rat liver microsomes; format: in vitro ADME; conditions: rat liver microsomes fortified with NADPH, 60 min incubation, 10 μM compound
[10] = system: rats; assay: Open-field locomotor activity; format: in vivo, rat; conditions: 10 or 20 mg/kg i.p., vs vehicle
[11] = system: rats; conditions: ref You et al., 2017, cited from earlier work
[12] = system: rats; conditions: ref Ashby et al., 2003; cited from earlier work

Compound: Cc1ncoc1-c1nnc(SCCCN2C[C@@H]3C[C@]3(c3ccc(C(F)(F)F)cc3F)C2)n1C [GSK598809]
- effect on food-taking and food-seeking behavior [1]: significantly inhibit food-taking and food-seeking behavior

Compound: O=C(NC/C=C/CN1CCN(c2cccc(Cl)c2Cl)CC1)c1ccc(-c2ccccn2)cc1 [PG01037]
- effect on food-taking and food-seeking behavior [1]: significantly inhibit food-taking and food-seeking behavior

Compound: O=C(NCCCCN1CCN(c2cccc(Cl)c2Cl)CC1)c1ccc2c(c1)Cc1ccccc1-2 [NGB-2904]
- effect on cocaine-induced extracellular nucleus accumbens DA [2]: enhanced cocaine-induced increases in extracellular nucleus accumbens DA
- effect on food-taking and food-seeking behavior [1]: significantly inhibit food-taking and food-seeking behavior

Compound: COc1ccc2c3c1O[C@H]1C(=O)CC[C@@]4(O)[C@@H](C2)N(C)CC[C@]314 [oxycodone, Oxycodone HCl, reference compound]
- effect on oICSS ([3]; 1 mg/kg i.p.): significant increase in oICSS
- effect on oICSS ([3]; 3 mg/kg i.p.): significant reduction in oICSS
- time of peak antinociceptive effect ([4]; hot plate, after administration): 30 min

Compound: CCc1cccc(N2CCN(C[C@H](O)CCNC(=O)c3cc4ccccc4[nH]3)CC2)c1Cl.Cl [R-VK4-40, (R)-N-(4-(4-(2-Chloro-3-ethylphenyl)piperazin-1-yl)-3-hydroxybutyl)-1H-indole-2-carboxamide HCl]
- effect on oICSS, compound alone ([3]; R-VK4-40 alone i.p. (10, 20 mg/kg as printed elsewhere in the source)): significant reduction in oICSS
- effect of pretreatment on oxycodone-enhanced oICSS ([3]; pretreatment before 1 mg/kg oxycodone): significantly reduced low-dose (1 mg/kg) oxycodone enhancements in oICSS
- effect on number of sucrose reinforcers earned ([5]; 3 mg/kg i.p., vs vehicle): no statistically significant differences
- effect on number of sucrose reinforcers earned ([5]; 10 mg/kg i.p., vs vehicle and 3 mg/kg): significantly reduced the number of sucrose reinforcers earned
- AUC(0-t) [6]: 1.99 ± 0.28 µM·h
- Cmax [6]: 310 ± 110 nM
- effect on PR break-point for oxycodone self-administration [7]: significant decrease in break-point
- effect on oxycodone self-administration (infusions earned) ([8]; FR1, 10 or 20 mg/kg i.p. 30 min before session, oxycodone 0.0031-0.05 mg/kg/infusion): dose-dependent reduction in oxycodone self-administration
- effect on daily oxycodone intake ([8]; FR1, 10 or 20 mg/kg i.p. pretreatment): reduced oxycodone intake at the 0.00625 and 0.05 mg/kg doses
- effect on inactive lever responding ([8]; FR1 oxycodone self-administration): no effect on inactive lever responding
- % intact remaining [9]: 86±2%
- effect of pretreatment on %MPE ([4]; 20 mg/kg i.p., after 1 mg/kg oxycodone): significant elevation of %MPE
- effect of pretreatment on oxycodone analgesia dose-response curve ([4]; 10 or 20 mg/kg i.p. 30 min before oxycodone 0.5-4 mg/kg i.p.): shifted the oxycodone dose-response curve significantly upward
- effect on open-field locomotion [10]: no effect on open-field locomotion

Compound: CCc1cc(Cl)c(OC)c(N2CCN(CC(O)CCNC(=O)c3cc4ccccc4[nH]3)CC2)c1 (racemic) [(±)VK4-116]
- effect on oxycodone self-administration ([11]; FR1 and PR schedules): dose-dependently inhibited oxycodone self-administration
- effect on oxycodone-triggered reinstatement of drug-seeking [11]: suppressed oxycodone-triggered reinstatement of drug-seeking behavior

Compound: N#Cc1ccc2c(c1)CCN(CCC1CCC(NC(=O)c3ccnc4ccccc34)CC1)C2 (stereo not shown) [SB-277011A]
- effect on opioid-induced conditioned place preference [12]: significantly inhibits opioid-induced conditioned place preferences (CPP)
- effect on food-taking and food-seeking behavior [1]: significantly inhibit food-taking and food-seeking behavior
